Experimental data reported in patent US20060099712A1, “Correlation of anti-cancer activity of dyes with redox potentials” (Eastman Kodak Company, priority 2004, published 2006).

Tested on: CX-1 Human Colon Carcinoma
Assay: Clonogenic dye screening assay, CX-1 cells (IC50)
Format: cell-based
Design: CX: unit not given here
Settings: for CX (IC50 in the CX-1 cell line): 3 hrs treatment, colonies after 7-10 days, unit from method b117-118; for CV/CX (selectivity, kill ratio): ratio of IC50 in normal CV-1 line to IC50 in carcinoma CX-1 line; for CX: CX-1 cells; for CV/C: selectivity ratio, value of 1 where dye inactive; for CV/CX: selectivity ratio of IC50 values
In short: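 Cells seeded 16-30 h ahead (2000 CX-1 or 1000 CV-1 per well), exposed to serially diluted dyes for 3 h at 37 °C, rinsed three times, then grown into colonies. Eight-point curves spanned 0.32-0.0015 μg/mL (CX-1) and 3.2-0.025 μg/mL (CV-1). IC50 is the concentration killing 50% of cells.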

[1] = listed as drawing 41|Et|5-Cl|5-Cl
[2] = Table XXI, oxathiacarbocyanine nitrogen substituents
[3] = Table XVII, benzotellurazole derivatives

Compound	CX (IC50 in the CX-1 cell line)	CV/CX (selectivity, kill ratio)	further results
CCN1/C(=C/C=C/c2sc3ccccc3[n+]2CCC=NNS(=O)(=O)c2ccc(C)cc2)Oc2ccccc21 [drawing 37|CCC═NNSO2Ph-4C|Et]	0.3 µg/mL	33.3	
CCN1C(=CC=Cc2sc3ccc(Cl)cc3[n+]2CC)Sc2ccc(Cl)cc21 [drawing 41|ET|5-Cl|5-Cl]	0.04 µg/mL	40.0	CX (IC50 in the CX-1 cell line) [1]: 0.30 µg/mL; CV/CX (selectivity, kill ratio) [1]: 16.7
CCN1C(=CC=Cc2sc3ccc(Br)cc3[n+]2CC)Sc2ccc(Br)cc21 [drawing 41|Et|5-Br|5-Br]	0.04 µg/mL	35.0	
CCN1/C(=C/C(=C/c2sc3ccccc3[n+]2CC)C(=S)[S-])Sc2ccccc21 [drawing 38|E|H|C(═S)S—|H]	>0.32 µg/mL	<8.7	
CCSC(=C\c1sc2ccc3ccccc3c2[n+]1CC)/C=C1\Oc2ccc3ccccc3c2N1CC [drawing 40|E|SEt]	0.04 µg/mL	1.25	
CCN1/C(=C/C=C/c2sc3cc(Cl)ccc3[n+]2CC)Sc2cc(Cl)ccc21.[I-] [Dye D-164]		112.5	
OCCN1C(=CC=Cc2sc3ccccc3[n+]2CCO)Sc2ccccc21 [drawing 36|CCOH|CCOH]	>0.32 µg/mL	10.0	CV/CX (selectivity, kill ratio) (listed as N,N′-di(2-hydroxyethyl) dye): not active
CCSC(CCN1/C(=C/C=C/c2sc3ccccc3[n+]2CCC(SCC)SCC)Sc2ccccc21)SCC [drawing 36|CCC(SEt)2|CCC(SEt)2]	>0.32 µg/mL	<4.1	
CC[n+]1c(/C=C(/C=C2\Sc3ccccc3N2C)Sc2ccccc2)sc2ccccc21 [drawing 38|E/M|H|SPh|H]	0.07 µg/mL	10.0	
C=C(Br)C[n+]1c(/C=C/C=C2\Oc3ccccc3N2CC)sc2ccccc21 [R1=CC(Br)═C, R2=Et]			CX [2]: 0.03; CV/C (Table XXI): 33.3
CCN1/C(=C/C=C/c2sc3ccccc3[n+]2CC(=O)c2ccc(O)cc2O)Oc2ccccc21 [drawing 37|CC(═O)Ph-2,4-OH|Et]	0.3 µg/mL	>33.3	
CC[n+]1c(/C=C(/C=C2\Sc3ccccc3N2C)SC)sc2ccccc21 [drawing 38|E/M|H|SMe|H]	0.008 µg/mL	37.5	
CCN1/C(=C/C=C/c2sc3ccccc3[n+]2CC)Oc2cc(C)c(Cl)cc21 [drawing 44|E|H|5-Cl, 6-Me]		11.4	
CCN1C(=CC(C)=Cc2sc3ccccc3[n+]2CC)Oc2ccccc21 [drawing 39|E|H|Me]	0.05 µg/mL	20.0	
CC[n+]1c(/C=C(/C=C2\Oc3ccccc3N2C)Sc2ccccc2)sc2ccccc21 [drawing 39|M/E|H|SPh]	0.1 µg/mL	3.0	
CC1CC2=C(c3ccccc31)N(C)/C(=C/C=C/c1sc3c([n+]1C)-c1ccccc1C(C)C3)S2 (stereo not shown) [drawing 43|M|4,5-H, 5-ME|4,5-H, 5-ME]	0.08 µg/mL	1.25	
CCN1/C(=C/C(=C/c2sc3ccccc3[n+]2CC)Sc2ccc(C)cc2)Sc2ccccc21 [drawing 38|E|H|SPhMe|H]	0.07 µg/mL	3.57	
CCN1/C(=C/C=C/c2sc3cc(OC)c(OC)cc3[n+]2CC)Oc2ccccc21 [drawing 44|E|5,6-MeO|H]		12.5	
CCn1c(=O)/c(=C/C=C2\C=Cc3cccc4c3N2CCC4)s/c1=C\c1oc2ccccc2[n+]1CC [Dye D-143]	0.1 µg/mL	100	
CCN1C(=CC=c2sc(=Cc3sc4ccccc4[n+]3CC)n(CC)c2=O)Sc2ccccc21 [drawing 51|Et]	0.07 µg/mL	22.8	
CC[n+]1c(/C=C/C=C2\Oc3ccccc3N2CC(=O)c2ccccc2)sc2ccccc21 [drawing 37|Et|C(C═O)Ph]	0.8 µg/mL	3.7	
CN1C(=CC=Cc2[te]c3ccccc3[n+]2C)[Te]c2ccccc21 [R=M, X=Te, Z1=H, R2=H, Z2=H]			CX [3]: 0.30; CV/CX (Table XVII): 16.7
CN1/C(=C/C=C/c2sc3ccc4ccccc4c3[n+]2C)Sc2ccc3ccccc3c21 [drawing 43|M|H|H]		10.0	
CCN1/C(=C\C=C\c2oc3ccc(C(F)(F)F)cc3[n+]2CC)Oc2ccc(C(F)(F)F)cc21 [drawing 45|5-CF3|5-CF3]	>.32 µg/mL	10.0	
CCN1/C(=C/C(C)=C/c2[te]c3ccc(C)cc3[n+]2CC)Sc2ccc(OC)cc21 [R=E, X=S, Z1=5-Me, R2=Me, Z2=5-MeO]			CX [3]: 0.03; CV/CX (Table XVII): 33.3

Compound	CX (IC50 in the CX-1 cell line)	CV/CX (selectivity, kill ratio)	further results
CN1C2=C(CCc3ccccc32)S/C1=C\C=C\c1sc2c([n+]1C)-c1ccccc1CC2 [drawing 43|M|4,5-H|4,5-H]	0.20 µg/mL	4.0	
CCN1/C(=C/C=C/c2sc3ccc(C#N)cc3[n+]2CC)Oc2ccccc21 [drawing 44|E|5-CN|H]		>13.3	
COc1cccc2c1CCC1=C2N(C)/C(=C/C=C/c2sc3c([n+]2C)-c2cccc(OC)c2CC3)S1 [drawing 43|M|4,5-H, 6-MeO|4,5-H, 6-MeO]	0.02 µg/mL	0.75	
CCN1/C(=C/C=C/c2c3ccccc3c3ccccc3[n+]2C)Sc2ccccc21 [Dye D-129]	0.008 µg/mL	87.5	CX (Table XVI, unsymmetrical dyes): 0.008; CV/CX (Table XVI): 87.5
CCN1/C(=C/C=C(\O)c2sc3ccccc3[n+]2CC)Oc2ccccc21 [drawing 39|E|OH|H]		10.0	
CCN1C(=CC(=Cc2sc3ccccc3[n+]2CC)c2cccs2)Sc2ccccc21 [drawing 38|E|H|2Thienyl|H]	0.16 µg/mL	10.0	
CCN1C=C(c2ccccc2)SC1=CC=Cc1sc2ccccc2[n+]1CC [Dye 5-Ph-thiazole]			CX (Table XVI, unsymmetrical dyes): 0.03; CV/CX (Table XVI): 16.7
CC[n+]1c(/C=C/C=C2\[Te]c3ccc4ccccc4c3N2C)sc2ccccc21 [naphtho/1,2/tellurazole]			CX (Table XVI, unsymmetrical dyes): 0.10; CV/CX (Table XVI): 3.0
CCN1/C(=C/C=C/c2sc3ccccc3[n+]2CC)Oc2ccc(C)cc21 [drawing 44|E|H|5-Me]		4.0	
CCN1/C(=C/C=C/c2sc3ccccc3[n+]2CC(N)=O)Oc2ccccc21 [drawing 37|CC(═O)N|Et]		>10.0	
CCC(/C=C1\Oc2ccc3ccccc3c2N1CC)=C\c1sc2ccc3ccccc3c2[n+]1CC [drawing 40|E|Et]	0.06 µg/mL	5.0	
CCN1/C(=C/C=C/c2sc3ccccc3[n+]2CCS(=O)(=O)CC)Oc2ccccc21 [R1=CCS02CC, R2=Et]			CX [2]: 0.3; CV/C (Table XXI): >33.3
CCN1/C(=C/C=C/c2[te]c3cc(OC)c(OC)cc3[n+]2C)Sc2ccccc21 [R=M/E, X=S, Z1=5,6-MeO, R2=H, Z2=H]			CX [3]: 0.5; CV/CX (Table XVII): 2.0
COc1ccc2ccc3c(c2c1)N(C)/C(=C/C=C/c1sc2ccc4ccc(OC)cc4c2[n+]1C)S3 [drawing 43|M|8-MeO|8-MeO]	0.02 µg/mL	40.0	
CCN1/C(=C/C=C/c2sc3ccccc3[n+]2CC(N)=O)Oc2ccccc21 [R1=CC(═O)N, R2=Et]			CV/C (Table XXI): >10.0
CCN1C(=CC=Cc2sc3ccccc3[n+]2CC)Sc2cc3ccccc3cc21 [naphtho/2,3/thiazole]			CX (Table XVI, unsymmetrical dyes): 0.007; CV/CX (Table XVI): 57.0
CCC(/C=C1\Oc2ccc3ccccc3c2N1C)=C\c1sc2ccc3ccccc3c2[n+]1C [drawing 40|M|Et]	0.08 µg/mL	5.0	
CCN1C(=CC=Cc2oc3cc(C)c(Cl)cc3[n+]2CC)Oc2cc(C)c(Cl)cc21 [drawing 45|5-Cl, 6-Me|5-Cl, 6-Me]	0.16 µg/mL	12.5	
CCN1/C(=C/C=C/c2sc3ccccc3[n+]2CC(=O)N2CCOCC2)Oc2ccccc21 [drawing 37|CC(═O)morpholino|Et]	>1.0 µg/mL	10.0	
CCN1C(=CC=c2sc(=Cc3sc4c([n+]3CC)CCCC4)n(CC)c2=O)Oc2ccccc21.[I-] (mixture of isomers) [Dye D-170]		100.0	
CCN1C(=CC=Cc2sc3cc(OC)ccc3[n+]2CC)Sc2cc(OC)ccc21 [drawing 41|Et|6-MeO|6-MeO]	0.01 µg/mL	9.0	
C=C(Br)C[n+]1c(/C=C/C=C2\Oc3ccccc3N2CC)sc2ccccc21 [drawing 37|CC(Br)═C|Et]	0.03 µg/mL	33.3	
CCN1/C(=C/C=C/c2sc3ccccc3[n+]2CC(=O)N2CCOCC2)Oc2ccccc21 [R1=CC(═0)morpholino, R2=Et]			CX [2]: >1.0; CV/C (Table XXI): 1.0
CCN1/C(=C/C=C/c2sc3cc(O)c(O)cc3[n+]2CC)Oc2ccccc21 [drawing 44|E|5,6-OH|H]		8.0	
CCN1/C(=C/C=C/c2sc3ccccc3[n+]2CCC=O)Oc2ccccc21 [R1=CCC═0, R2=Et]			CX [2]: 0.1; CV/C (Table XXI): 50.0
